The values below come from PubChem BioAssay (NCI).

Each structure is given as a SMILES string. Values joined by “and” are separate entries in the source; they are usually repeats but may differ in a detail not shown here. Equal entries are not always repeated.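 Interpolation was linear, between the two tested concentrations surrounding the appropriate level; five concentrations were tested over 48 hours in 96-well plates. Here, GI50 denotes the concentration required for 50% inhibition of growth. TGI is the concentration that stops growth completely.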

Test systems include SK-MEL-28 melanoma; SNB-19 CNS; OVCAR-5 ovarian; MALME-3M melanoma; MCF7 breast; U251 CNS; MDA-MB-231 breast; SK-MEL-5 melanoma; COLO 205 colon; HT29 colon.
Test in all cases: inhibition of tumour cell growth, NCI panel, 48 h

Consider `COc1cc(Nc2ncc3c(n2)-c2ccc(Cl)cc2C(c2c(F)cccc2OC)=NC3)ccc1C(=O)O`, for which the GI50 is 13.2 µM with SK-MEL-28 melanoma; 13.3 µM in the assay on SNB-19 CNS; 7.54 µM with OVCAR-5 ovarian; 16.9 µM in the assay on MALME-3M melanoma; 0.0469 µM in the assay with MCF7 breast; 2.74 µM in the assay with U251 CNS. In addition, the GI50 was 3.07 µM with MDA-MB-231 breast, 12.3 µM in the assay on SK-MEL-5 melanoma, 0.0651 µM with COLO 205 colon and 2.24 µM in the assay with HT29 colon. In addition, the TGI in the assay with SK-MEL-28 melanoma is > 92 µM; in the assay on SNB-19 CNS, > 100 µM; with OVCAR-5 ovarian, > 77.7 µM; with MALME-3M melanoma, > 89.1 µM; in the assay with MCF7 breast, > 100 µM; in the assay on U251 CNS, 33.3 µM. The TGI with MDA-MB-231 breast was > 100 µM; in the assay on SK-MEL-5 melanoma, 29.1 µM; in the assay on COLO 205 colon, 16.7 µM; in the assay on HT29 colon, 23.8 µM.
For the compound `O=C1CC(c2ccccc2)Cc2nc3ccc(Cl)cc3cc21` (stereo not drawn), the GI50 in the assay on SK-MEL-28 melanoma is 1.05 µM; in the assay with SNB-19 CNS it was 0.462 µM; with OVCAR-5 ovarian, 0.791 µM; with MALME-3M melanoma it was 0.0453 µM; with MCF7 breast it was 2.42 µM; in the assay on U251 CNS it was 0.644 µM. For the same compound, the GI50 with MDA-MB-231 breast was 0.538 µM; in the assay with SK-MEL-5 melanoma, 0.309 µM; with COLO 205 colon it was 0.344 µM; with HT29 colon, 0.246 µM. Moreover, the TGI was > 100 µM with SK-MEL-28 melanoma; > 100 µM with SNB-19 CNS; > 100 µM with OVCAR-5 ovarian; 52.9 µM in the assay on MALME-3M melanoma; > 100 µM with MCF7 breast; > 62.2 µM with U251 CNS. Moreover, the TGI in the assay on MDA-MB-231 breast is > 100 µM; in the assay on SK-MEL-5 melanoma, 2.37 µM; with COLO 205 colon, 3 µM; in the assay with HT29 colon it was > 100 µM.
For `O=C1OCC2=C1C(c1cccc(F)c1)c1cc3c(cc1N2CCO)OCCO3` (stereo not drawn), the GI50 is 1.5 µM in the assay with SK-MEL-28 melanoma; 0.275 µM in the assay on SNB-19 CNS; 0.541 µM in the assay on OVCAR-5 ovarian; 0.305 µM in the assay on MALME-3M melanoma; 0.13 µM in the assay on MCF7 breast; 0.221 µM in the assay on U251 CNS. Besides, the GI50 was 0.32 µM in the assay with MDA-MB-231 breast, 0.162 µM in the assay with SK-MEL-5 melanoma, 0.204 µM with COLO 205 colon and 0.178 µM in the assay on HT29 colon. Further, the TGI in the assay on SK-MEL-28 melanoma, with SNB-19 CNS, in the assay with OVCAR-5 ovarian, with MALME-3M melanoma, in the assay on MCF7 breast and with U251 CNS was > 50 µM each time. The TGI in the assay on MDA-MB-231 breast was > 20.3 µM; in the assay on COLO 205 colon, 7.43 µM; in the assay on HT29 colon, > 50 µM.
In the case of `COc1ccc(C(=O)Nc2ncc(Cc3ccc(F)cc3)s2)cc1`, the GI50 with SK-MEL-28 melanoma is 2.16 µM; in the assay on SNB-19 CNS it was 0.0963 µM; with OVCAR-5 ovarian, 0.406 µM; in the assay on MALME-3M melanoma, 0.0855 µM; in the assay with MCF7 breast it was 0.0385 µM; with U251 CNS, 0.0686 µM. The GI50 in the assay on MDA-MB-231 breast was 0.2 µM; in the assay with SK-MEL-5 melanoma, 0.0422 µM; in the assay with COLO 205 colon it was 0.0584 µM; in the assay on HT29 colon, 0.0438 µM. The TGI in the assay on SK-MEL-28 melanoma is > 100 µM; in the assay on SNB-19 CNS, > 100 µM; in the assay on OVCAR-5 ovarian, 99.6 µM; with MALME-3M melanoma, > 62.8 µM; with MCF7 breast, > 100 µM; in the assay on U251 CNS it was > 89.1 µM. The values for the TGI with MDA-MB-231 breast, in the assay with SK-MEL-5 melanoma and with HT29 colon were 76.6 µM, 2.26 µM and > 100 µM, respectively.
As to `COC(=O)C1CC2(c3ccc(C)cc3)C(c3ccc(C)cc3)=C(c3ccc(C)cc3)C1(c1ccc(C)cc1)S2=O` (stereo not drawn), the GI50 was > 100 µM with SK-MEL-28 melanoma; 36.2 µM with SNB-19 CNS; > 100 µM in the assay with OVCAR-5 ovarian; > 100 µM in the assay with MALME-3M melanoma; > 100 µM in the assay with MCF7 breast; 65.1 µM with U251 CNS. The GI50 is > 100 µM in the assay with MDA-MB-231 breast, > 100 µM with SK-MEL-5 melanoma, > 100 µM with COLO 205 colon and 41.4 µM in the assay with HT29 colon. Further, the TGI in the assay with SK-MEL-28 melanoma, in the assay with SNB-19 CNS, in the assay on OVCAR-5 ovarian, in the assay with MALME-3M melanoma, in the assay with MCF7 breast and in the assay on U251 CNS was > 100 µM throughout. The TGI in the assay on MDA-MB-231 breast, in the assay on SK-MEL-5 melanoma, in the assay with COLO 205 colon and with HT29 colon was > 100 µM throughout.
`CC[C@](O)(C(=O)O)c1cc2n(c(=O)c1CO)Cc1cc3ccccc3nc1-2`: the GI50 in the assay with SK-MEL-28 melanoma is 0.147 µM and 0.169 µM and 0.0493 µM; in the assay on SNB-19 CNS, 0.00337 µM and 0.02 µM; in the assay on OVCAR-5 ovarian it was 0.0691 µM and 0.104 µM; with MALME-3M melanoma, 0.0642 µM and 0.272 µM; in the assay on U251 CNS it was < 0.0025 µM and 0.0107 µM; in the assay with MDA-MB-231 breast it was 0.969 µM. Further, the GI50 in the assay on COLO 205 colon is 0.0556 µM and 0.296 µM; in the assay on HT29 colon it was 0.0354 µM and 0.11 µM. Besides, the TGI in the assay with OVCAR-5 ovarian was 0.784 µM and 0.501 µM; in the assay with MALME-3M melanoma, 4.75 µM and 4.12 µM and 0.807 µM; in the assay on MCF7 breast it was 3.43 µM; in the assay with U251 CNS, 0.0386 µM and 0.164 µM and 0.0615 µM; with MDA-MB-231 breast, 6.84 µM; with SK-MEL-5 melanoma, 0.0383 µM and 0.156 µM and 0.0896 µM. Besides, in the assay on COLO 205 colon, the TGI is 0.779 µM and 2.21 µM and 3.85 µM.
Take `NC1=CC(=O)C(=O)c2cccnc21`: the GI50 was 2.6 µM in the assay on SK-MEL-28 melanoma; 5.86 µM in the assay on SNB-19 CNS; 17.8 µM in the assay with OVCAR-5 ovarian; 2.22 µM with MALME-3M melanoma; 3.74 µM in the assay with MCF7 breast; 3.92 µM in the assay with U251 CNS. For the same compound, the GI50 in the assay with MDA-MB-231 breast is 1.93 µM; in the assay with SK-MEL-5 melanoma, 1.51 µM; in the assay on COLO 205 colon, 16.6 µM; in the assay on HT29 colon, 15.1 µM. Moreover, the TGI was 6.38 µM with SK-MEL-28 melanoma; 21.6 µM in the assay with SNB-19 CNS; 34.3 µM in the assay with OVCAR-5 ovarian; 4.63 µM in the assay with MALME-3M melanoma; 16.8 µM with MCF7 breast; 15.4 µM in the assay on U251 CNS. The TGI is 18.8 µM in the assay with MDA-MB-231 breast, 2.84 µM with SK-MEL-5 melanoma, 30.1 µM in the assay on COLO 205 colon and 38.7 µM in the assay with HT29 colon.
